According to PubChem BioAssay AID248 (DTP/NCI, 2004):
“And” between values parts separate entries of the source, which are not always exact repeats. Equal values may be shown once. Inconclusive results and toxic doses are left out. Rule as the data show it: active = T/C of 150% or more; inactive = T/C below 125%.

Tested on: L1210 leukemia ip in BDF1 mice, survival T/C
Assay: NCI In Vivo Anticancer Drug Screen. Data for tumor model L1210 Leukemia (intraperitoneal) in B6D2F1 (BDF1) mice
Conditions: endpoint: mean survival time, higher = longer survival
How it was run: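 Ratio derived from survival: compound-dosed mice over vehicle-dosed mice, all bearing a transplantable tumor.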

[1] = dose: 100.0 mg/kg/injection, schedule: Q01DX001 (ip), vehicle: saline
[2] = dose: 200.0 mg/kg/injection, schedule: Q01DX001 (ip), vehicle: saline
[3] = dose: 400.0 mg/kg/injection, schedule: Q01DX001 (ip), vehicle: saline
[4] = dose: 100.0 mg/kg/injection, schedule: Q04DX002 (ip), vehicle: Klucel (hydroxypropylcellulose) (HPC)
[5] = dose: 100.0 mg/kg/injection, schedule: Q01DX001 (ip), vehicle: Klucel (hydroxypropylcellulose) (HPC)
[6] = dose: 200.0 mg/kg/injection, schedule: Q01DX001 (ip), vehicle: Klucel (hydroxypropylcellulose) (HPC)
[7] = dose: 400.0 mg/kg/injection, schedule: Q01DX001 (ip), vehicle: Klucel (hydroxypropylcellulose) (HPC)
[8] = dose: 25.0 mg/kg/injection, schedule: Q01DX009 (ip), vehicle: Klucel (hydroxypropylcellulose) (HPC)
[9] = dose: 25.0 mg/kg/injection, schedule: Q04DX003 (ip), vehicle: Klucel (hydroxypropylcellulose) (HPC)
[10] = dose: 100.0 mg/kg/injection, schedule: Q01DX009 (ip), vehicle: Klucel (hydroxypropylcellulose) (HPC)
[11] = dose: 200.0 mg/kg/injection, schedule: Q01DX009 (ip), vehicle: Klucel (hydroxypropylcellulose) (HPC)
[12] = dose: 200.0 mg/kg/injection, schedule: Q04DX003 (ip), vehicle: Klucel (hydroxypropylcellulose) (HPC)
[13] = dose: 400.0 mg/kg/injection, schedule: Q04DX003 (ip), vehicle: Klucel (hydroxypropylcellulose) (HPC)
[14] = dose: 50.0 mg/kg/injection, schedule: Q01DX009 (ip), vehicle: Klucel (hydroxypropylcellulose) (HPC)
[15] = dose: 100.0 mg/kg/injection, schedule: Q04DX003 (ip), vehicle: Klucel (hydroxypropylcellulose) (HPC)
[16] = dose: 400.0 mg/kg/injection, schedule: Q01DX009 (ip), vehicle: Klucel (hydroxypropylcellulose) (HPC)
[17] = dose: 100.0 mg/kg/injection, schedule: Q01DX009 (ip), vehicle: saline with Tween-80
[18] = dose: 200.0 mg/kg/injection, schedule: Q01DX009 (ip), vehicle: saline with Tween-80
[19] = dose: 50.0 mg/kg/injection, schedule: Q01DX001 (ip), vehicle: saline

Measured: T/C

c1ccc2c3c([nH]c2c1)C1CC2CC(C1)CC3C2
inactive: dose: 100.0 mg/kg/injection, schedule: Q04DX003 (ip), vehicle: alcohol 105 % of control | dose: 200.0 mg/kg/injection, schedule: Q04DX003 (ip), vehicle: alcohol 96 % of control | dose: 400.0 mg/kg/injection, schedule: Q04DX003 (ip), vehicle: alcohol 96 % of control

C1OC2CC3CC1C2C3 (stereo unspecified)
inactive: dose: 10.0 mg/kg/injection, schedule: Q01DX001 (ip), vehicle: acetone 107 % of control | dose: 20.0 mg/kg/injection, schedule: Q01DX001 (ip), vehicle: acetone 104 % of control | dose: 40.0 mg/kg/injection, schedule: Q01DX001 (ip), vehicle: acetone 98 % of control

O=C(Nc1ccc(S(=O)(=O)NC2CCCCC2)cc1)OC1CCCCC1
inactive: [1] 92 % of control | [2] 90 % of control | [3] 94 % of control

Cc1cccc(NC(=O)c2c(Cl)c(Cl)c(Cl)c(Cl)c2C(=O)O)c1C
inactive: [4] 91 % of control | dose: 200.0 mg/kg/injection, schedule: Q04DX002 (ip), vehicle: Klucel (hydroxypropylcellulose) (HPC) 100 % of control

CCOC(=O)CCC(=O)N(C)CCc1ccc(OC)c(OC)c1
inactive: dose: 25.0 mg/kg/injection, schedule: Q04DX002 (ip), vehicle: Klucel (hydroxypropylcellulose) (HPC) 117 % of control | dose: 50.0 mg/kg/injection, schedule: Q04DX002 (ip), vehicle: Klucel (hydroxypropylcellulose) (HPC) 101 % of control | [4] 101 % of control

c1coc(-c2cnc3ccccc3n2)c1
inactive: dose: 75.0 mg/kg/injection, schedule: Q01DX001 (ip), vehicle: carboxymethylcellulose (CMC) 109 % of control | dose: 150.0 mg/kg/injection, schedule: Q01DX001 (ip), vehicle: carboxymethylcellulose (CMC) 91 % of control

O=c1c(C(Cl)Cl)nc2ccccc2n1O
inactive: [5] 95 % of control | [6] 98 % of control | [7] 101 % of control

CC(=O)C(CCC#N)C(C)=O.CC(=O)C(CCC#N)C(C)=O.[Cu]
inactive: dose: 6.25 mg/kg/injection, schedule: Q01DX009 (ip), vehicle: Klucel (hydroxypropylcellulose) (HPC) 95 % of control | dose: 12.5 mg/kg/injection, schedule: Q01DX009 (ip), vehicle: Klucel (hydroxypropylcellulose) (HPC) 98 % of control | dose: 12.5 mg/kg/injection, schedule: Q04DX003 (ip), vehicle: Klucel (hydroxypropylcellulose) (HPC) 90 % of control | [8] 87 % of control | [9] 91 % of control

CC1(C)N=C(N)N=C(N)N1c1ccc(CCNC(=O)c2ccc(S(=O)(=O)F)cc2)cc1
inactive: dose: 25.0 mg/kg/injection, schedule: Q01DX001 (ip), vehicle: Klucel (hydroxypropylcellulose) (HPC) 90 % of control | dose: 50.0 mg/kg/injection, schedule: Q01DX001 (ip), vehicle: Klucel (hydroxypropylcellulose) (HPC) 96 % of control | [5] 90 % of control

ClC(c1ccccc1)C1(Br)C=c2ccccc2=C1 (stereo unspecified)
inactive: [10] 97 % of control | [11] 97 % of control | [12] 105 % of control and 91 % of control | [13] 94 % of control and 103 % of control

CC12CC3CC1C2C3OC=O (stereo unspecified)
inactive: dose: 50.0 mg/kg/injection, schedule: Q01DX001 (ip), vehicle: carboxymethylcellulose (CMC) 90 % of control | dose: 100.0 mg/kg/injection, schedule: Q01DX001 (ip), vehicle: carboxymethylcellulose (CMC) 95 % of control | dose: 200.0 mg/kg/injection, schedule: Q01DX001 (ip), vehicle: carboxymethylcellulose (CMC) 95 % of control | dose: 400.0 mg/kg/injection, schedule: Q01DX001 (ip), vehicle: carboxymethylcellulose (CMC) 101 % of control

CCCCCCCCCCCCC(=O)[O][Hg][c]1ccccc1
inactive: dose: 9.38 mg/kg/injection, schedule: Q01DX001 (ip), vehicle: steriod suspending solution 96 % of control | dose: 18.75 mg/kg/injection, schedule: Q01DX001 (ip), vehicle: steriod suspending solution 98 % of control

CC(=O)OC1CCC2(C)C(CCC3C2CCC2(C)C3CCC2C(C)(C)O)C1 (stereo unspecified)
inactive: dose: 100.0 mg/kg/injection, schedule: Q04DX002 (ip), vehicle: DMSO 99 % of control | dose: 200.0 mg/kg/injection, schedule: Q04DX002 (ip), vehicle: DMSO 92 % of control | dose: 400.0 mg/kg/injection, schedule: Q04DX002 (ip), vehicle: DMSO 92 % of control

Cc1cccc(C)c1N1C(=O)CCC1=O
inactive: [14] 98 % of control | [10] 96 % of control | [15] 94 % of control | [11] 100 % of control | [12] 97 % of control | [16] 100 % of control | [13] 100 % of control

C=COC(=O)NC(C(=O)O)C(C)CC (stereo unspecified)
inactive: dose: 75.0 mg/kg/injection, schedule: Q01DX001 (ip), vehicle: saline 111 % of control | dose: 150.0 mg/kg/injection, schedule: Q01DX001 (ip), vehicle: saline 103 % of control

COc1ccc(C)cc1NC(=O)Oc1ccc2c(C)cc(=O)oc2c1
inactive: [17] 96 % of control | [18] 96 % of control

Clc1cccc(Cl)c1/C=N/Nc1nnc(N/N=C/c2c(Cl)cccc2Cl)c2ccccc12
inactive: [19] 103 % of control | [1] 100 % of control | [2] 100 % of control | [3] 103 % of control

COc1ccccc1NC(=O)c1ccccc1
inactive: [10] 89 % of control | [16] 95 % of control

CC[n+]1c(C)ccc2ccccc21
inactive: [8] 91 % of control | [9] 99 % of control | [19] 95 % of control | [14] 91 % of control | dose: 50.0 mg/kg/injection, schedule: Q04DX003 (ip), vehicle: Klucel (hydroxypropylcellulose) (HPC) 99 % of control

COC(=O)c1coc(C(=O)N2CCCC2)c1C(=O)O
inactive: dose: 75.0 mg/kg/injection, schedule: Q04DX003 (ip), vehicle: Klucel (hydroxypropylcellulose) (HPC) 93 % of control | [5] 103 % of control | dose: 150.0 mg/kg/injection, schedule: Q04DX003 (ip), vehicle: Klucel (hydroxypropylcellulose) (HPC) 105 % of control | [6] 101 % of control | dose: 300.0 mg/kg/injection, schedule: Q04DX003 (ip), vehicle: Klucel (hydroxypropylcellulose) (HPC) 98 % of control | [7] 103 % of control

O=C(CCCC(=O)N/N=C/c1cc(Cl)cc(Cl)c1O)N/N=C\c1cc(Cl)cc(Cl)c1O
inactive: [19] 100 % of control | [1] 97 % of control | [2] 100 % of control | [3] 97 % of control

CCOC(=O)CNC(=O)Oc1cccc2cccnc12
inactive: [17] 103 % of control | [18] 101 % of control

CC1=C[S+](c2ccccc2)c2cccc3cc4ccccc4c1c23 (stereo unspecified)
inactive: dose: 2.5 mg/kg/injection, schedule: Q01DX009 (ip), vehicle: saline with Tween-80 119 % of control

C/C(=N/NC(=O)c1ccncc1)C(=O)O
inactive: dose: 25.0 mg/kg/injection, schedule: Q04DX003 (ip), vehicle: saline with Tween-80 92 % of control | dose: 50.0 mg/kg/injection, schedule: Q04DX003 (ip), vehicle: saline with Tween-80 93 % of control | dose: 100.0 mg/kg/injection, schedule: Q04DX003 (ip), vehicle: saline with Tween-80 101 % of control

Cc1ccc([N+](=O)[O-])cc1NC(=O)SCCSC(=O)Nc1cc([N+](=O)[O-])ccc1C
inactive: [15] 90 % of control | [12] 92 % of control | [13] 92 % of control
